Reference: publication PMC9894685, “Abscisic acid agonists suitable for optimizing plant water use” (Frontiers in Plant Science, 2023)
“Also recorded” adds a separate entry of the source.

Experiments:
wheat plants = assay: Foliar administration and thermal imaging of leaf temperature, wheat; format: in vivo, Triticum aestivum; settings: 100 μM, 24 h after administration
Experimental: (§1) Thermal imaging was carried out as described ([Yang et al., 2016]). An assessment of the efficacy of ABA and CCPs was conducted by using 35-day-old Arabidopsis and 30-day-old wheat plants. Stock solutions (10 mM) of CCPs and ABA dissolved in dimethyl sulfoxide (DMSO) were diluted to the respective ligand concentrations (10, 30, 100 µM) in water containing 0.01% (v/v) Tween 20. Aqueous Tween 20 solutions supplemented with 0.1%, 0.3%, and 1% DMSO served for mock treatments. The solutions were sprayed onto the leaf surface until the run-off of droplets. One day after application (unless otherwise indicated), thermal imaging was conducted using the InfraTec instrument (IR-TCM 384, InfraTec, Dresden, Germany). The leaf temperature of Arabidopsis was determined as the average temperature of all leaves. The leaf temperature of wheat was determined as described ([Yang et al., 2019]).

RCAR11-ABI2 = tested on: T1, RCAR11-ABI2; assay: In vitro phosphatase assay, ABI2 with RCAR11; format: biochemical, Arabidopsis thaliana; settings: esterase-treated
T1 construct: 6xHis (N); made in house; host or cells: Escherichia coli BL21
Experimental: Expression, purification, and analysis of RCAR and PP2C proteins were performed essentially as described ([Ruschhaupt et al., 2019]). Briefly, the ABA receptors RCAR1, RACR8, and RCAR11 were expressed with an aminoterminal histidine tag using the pSEVA431_LII_6xHIS::RCAR1/RCAR8/RCAR11. ABA coreceptors were expressed as histidine-tagged fusions with the maltose-binding protein using the pSEVA431_LII_6xHIS::MBP::ABI2/HAB1. All constructs were transformed and expressed in Escherichia coli strain BL21 and purified to homogeneity according to supplier’s instruction (GE Healthcare, Chicago, USA). The receptor assay was performed with 100 nM PP2C and a two-fold molar excess of RCAR. Values are means ± SD of three replicates. […] The maximum inhibition was set to 100% in the figures. The phosphatase activity was measured using 4-methylumbelliferyl-phosphate as a substrate ([Meinhard and Grill, 2001]). The increase in fluorescence was recorded over 25 min with excitation and emission wavelengths at 360 and 460 nm, respectively, using a Synergy 2 plate reader (Bio-Tec, Winooski, USA).

Arabidopsis plants = assay: Foliar administration and thermal imaging of leaf temperature (transpiration), Arabidopsis; format: in vivo, Arabidopsis thaliana; settings: for Leaf temperature increase, activity compared to ABA: 10, 30, 100 µM, one day after application
Experimental: as §1

[1] = tested on: Arabidopsis aba2-1 protoplasts; assay: Transient ABA response in Arabidopsis protoplasts (pRD29B::LUC, RCAR11 and ABI2 effectors); format: cell-based, Arabidopsis thaliana
Experimental: Preparation of Arabidopsis protoplasts, transfection of the effector DNA, and analysis of LUC activity were performed as described ([Tischer et al., 2017]). In essence, 10^5 mesophyll protoplasts from leaves of the ABA deficient mutant aba2-1 ([Schwartz et al., 1997]) were transfected with 4 µg DNA of the pRD29B::LUC construct as an ABA-responsive reporter and 3 µg of p35S::GUS (β-glucuronidase reporter gene) expression cassette as an internal control for normalization. In addition, 3 µg p35S::RCAR11 or the empty vector with the same expression cassette were co-expressed with 0.1 µg p35S::ABI2 effector constructs ([Tischer et al., 2017]), and the ligand-dependent induction of ABA-responsive reporter expression were assessed after incubation at 22°C. The expression of LUC and GUS was determined 18 h after transfection and ligand administration.

LC-MS log p = format: physicochemical
Experimental: Cyano cyclopropyl ABA analogs were provided by Bayer (Division Crop Science, Höchst, Germany). All CCPs, except CCP8, were synthesized as described ([Frackenpohl et al., 2018]). For the synthesis of CCP8, ethyl-(2Z)-6-(1-cyanocyclopropyl)-3-ethyl-6-hydroxy-7-methyloct-2-en-4-ynoate, copper (I) iodide (7 mg, […]) and bis (triphenylphosphine) palladium (II) chloride (19 mg, 0.03 mmol) were charged under argon, and toluene (3 mL) together with ethyl (2Z)-3-iodopent-2-enoate (233 mg, 0.9 mmol; column chromatography purification of a crude product as described by [Frackenpohl et al., 2018]) were added at room temperature. After stirring for 10 min, 1-(3-hydroxy-4-methylpent-1-yn-3-yl) cyclopropanecarbonitrile (150 mg, 0.9 mmol; synthesis as describe by [Frackenpohl et al., 2018]) dissolved in toluene (3 mL) and diisopropylamine (0.4 mL, 2.8 mmol) were added. The resulting reaction mixture was stirred for 3 h prior to addition of water. The aqueous phase was extracted repeatedly with dichloromethane. The combined organic phases were dried over magnesium sulphate, filtered, and concentrated under reduced pressure. […]

[2] = biological target: ABI2 (Arabidopsis thaliana) (UniProt O04719)
ABI2 (Arabidopsis thaliana), sequence (O04719 whole entry): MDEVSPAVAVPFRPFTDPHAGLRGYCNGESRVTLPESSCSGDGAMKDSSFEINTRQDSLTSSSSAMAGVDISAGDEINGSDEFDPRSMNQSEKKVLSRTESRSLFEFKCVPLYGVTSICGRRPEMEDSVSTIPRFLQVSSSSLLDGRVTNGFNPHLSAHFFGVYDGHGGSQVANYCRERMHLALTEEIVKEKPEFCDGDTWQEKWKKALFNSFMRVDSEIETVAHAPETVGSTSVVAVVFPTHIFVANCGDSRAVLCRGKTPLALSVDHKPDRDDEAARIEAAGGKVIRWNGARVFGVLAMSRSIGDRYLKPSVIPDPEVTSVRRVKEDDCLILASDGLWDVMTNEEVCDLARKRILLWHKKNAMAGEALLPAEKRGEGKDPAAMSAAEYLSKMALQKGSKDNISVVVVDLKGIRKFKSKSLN

COC(=O)/C=C(\C=C\C(O)(C(C)C)C1(C#N)CC1)C(F)(F)F (stereo not shown) [CCP4]
Leaf temperature increase, activity compared to ABA (wheat plants): somewhat less active
Activity with RCAR11-ABI2 receptor complex compared to ABA (RCAR11-ABI2): slightly lower activity than ABA
Leaf temperature increase, activity compared to ABA (Arabidopsis plants): moderately higher activity compared to ABA

COC(=O)/C=C(\C=C\C(O)(C1CC1)C1(C#N)CC1)C(F)(F)F (stereo not shown) [CCP5]
Leaf temperature increase, activity compared to ABA (wheat plants): somewhat less active
Activity with RCAR11-ABI2 receptor complex compared to ABA (RCAR11-ABI2): slightly lower activity than ABA
Concentration for half-maximum inhibition of ABI2 relative to ABA (RCAR11-ABI2; approximately 60% conversion into free acid): twofold
Potency in reducing transpiration compared to ABA (Arabidopsis plants; 10 µM): more potent than 100 µM ABA
Leaf temperature increase, activity compared to ABA (Arabidopsis plants): more efficacious than ABA and even exceeding the efficacy of CCP1 to CCP3
Duration of persistent response (Arabidopsis plants; 10 and 30 µM ligand treatment): 10 days
Potency relative to ABA (Arabidopsis plants; 10 and 30 µM ligand vs 100 µM ABA): more than tenfold; also recorded: more than ten times
Duration of effect relative to ABA (Arabidopsis plants; 10 and 30 µM ligand vs ABA): approximately three times
Efficiency in minimizing transpiration compared to ABA (Arabidopsis plants; foliar application): by an order of magnitude more efficient than ABA
Activity and persistence of minimized transpiration compared to ABA (Arabidopsis plants; single application 100 µM, recorded for 19 days): more active and persistent than ABA
Induction of ABA signaling compared to ABA ([1]; aba2-1 protoplasts, 18 h ligand exposure): most active compound
Higher induction rates than ABA ([1]; at different ligand concentrations): up to 60%

COC(=O)/C=C(\C=C\C(O)(C1CCCC1)C1(C#N)CC1)C(F)(F)F (stereo not shown) [CCP6]
Activity with RCAR11-ABI2 receptor complex compared to ABA (RCAR11-ABI2): slightly lower activity than ABA
Leaf temperature increase, activity compared to ABA (Arabidopsis plants): somewhat lower efficacy

CCOC(=O)/C=C(\C#CC(O)(C(C)C)C1(C#N)CC1)CC (stereo not shown) [CCP8, ethyl-(2Z)-6-(1-cyanocyclopropyl)-3-ethyl-6-hydroxy-7-methyloct-2-en-4-ynoate]
chromatographic logP (LC-MS log p): 1.39

RCAR11/PYR1 (from UniProt O49686 1-191) (receptor)
induction of the ABRE-LUC reporter in yeast expressing RCAR11, ABI2, OST1 and ABF2, with 30 µM ABA or CCP1 against mock-treated cells (dose series with ABA, CCP1, CCP2 in Figure 2A) [2]: 8 fold
